Measurements taken from patent US6984641B2, “Carboline derivatives as PDE5 inhibitors” (Lilly Icos LLC., priority 2001, dated 2006).

What was measured:
human recombinant PDE5 = human recombinant PDE5 (Homo sapiens, UniProt O76074); experiment: Inhibitory effect on cGMP-PDE (one-step assay, 8-[H3]-cGMP), human recombinant PDE5; format: biochemical
Description: The compounds of the present invention were tested for an ability to inhibit PDE5. The ability of a compound to inhibit PDE5 activity is related to the IC50 yalue for the compound, i.e., the concentration of inhibitor required for 50% inhibition of enzyme activity. The IC50 value for compounds of the present invention were determined using recombinant human PDE5. […]
Cell pellets (29 g) were thawed on ice with an equal volume of Lysis Buffer (25 mM Tris HCl, pH 8, 5 mM MgCl2, 0.25 mM DTT, 1 mM benzamidine, and 10 μM ZnSO4). Cells were lysed in a Microfluidizer® (Microfluidics Corp.) using nitrogen at 20,000 psi. The lysate was centrifuged and filtered through 0.45 μm disposable filters. The filtrate was applied to a 150 mL column of Q SEPHAROSE® Fast-Flow (Pharmacia). The column was washed with 1.5 volumes of Buffer A (20 mM Bis-Tris Propane, pH 6.8, 1 mM MgCl2, 0.25 mM DTT, 10 μM ZnSO4) and eluted with a step gradient of 125 mM NaCl in Buffer A followed by a linear gradient of 125–1000 mM NaCl in Buffer A. Active fractions from the linear gradient were applied to a 180 mL hydroxyapatite column in Buffer B (20 mM Bis-Tris Propane (pH 6.8), 1 mM MgCl2, 0.25 mM DTT, 10 μM ZnSO4, and 250 mM KCl). After loading, the column was washed with 2 volumes of Buffer B and eluted with a linear gradient of 0–125 mM potassium phosphate in Buffer B. Active fractions were pooled, precipitated with 60% ammonium sulfate, and resuspended in Buffer C (20 mM Bis-Tris Propane, pH 6.8, 125 mM NaCl, 0.5 mM DTT, and 10 μM ZnSO4). The pool was applied to a 140 mL column of SEPHA-CRYL® S-300 HR and eluted with Buffer C. Active fractions were diluted to 50% glycerol and stored at −20° C.
(§1) CGMP-PDE activity of compounds of the present invention was measured using a one-step assay adapted from Wells et al., Biochim. Biophys. Acta, 384, 430 (1975). The reaction medium contained 50 mM Tris-HCl, pH 7.5, 5 mM magnesium acetate, 250 μg/ml 5′-Nucleotidase, 1 mM EGTA, and 0.15 μM 8-[H^3]-cGMP. Unless otherwise indicated, the enzyme used was a human recombinant PDE5 (ICOS Corp., Bothell, Wash.).
(§2) Compounds of the invention were dissolved in DMSO finally present at 2% in the assay.

PDE5 (bovine aorta) = biological target: T1, PDE5 (bovine aorta) (Bos taurus, UniProt Q28156); experiment: Inhibitory effect on cGMP-PDE (one-step assay), enzyme from bovine aorta; format: biochemical; conditions: vs. bovine aorta (footnote 1)
T1 construct: from tissue; host or cells: bovine aorta
Description: as §1, §2

Row | Structure (SMILES) | IC50 (human recombinant PDE5) | IC50 (PDE5 (bovine aorta))
1 | O=C1COC[C@@H]2Cc3c([nH]c4ccccc34)[C@H](c3ccc4c(c3)OCO4)N12 (racemic) [Example 3, (+−,cis)-10-Benzo[1,3]dioxol-5-yl-5a,6,10,11-tetrahydro-5H-7-oxa-9a,11-diazabenzo[b]-fluoren-9-one] | 70 nM | 
2 | COc1ccc([C@H]2c3[nH]c4ccccc4c3C[C@H]3COCC(=O)N32)cc1 (racemic) [Example 4, (+−,cis)-10-(4-Methoxyphenyl)-5a,6,10,11-tetrahydro-5H-7-oxa-9a,11-diazabenzo[b]fluoren-9-one] | 300 nM | 
3 | O=C1CCC(=O)N2[C@H](c3ccc4c(c3)OCO4)c3[nH]c4ccccc4c3C[C@@H]12 (racemic) [Example 6, (+−,trans)-6-Benzo[1,3]dioxol-5-yl-5,6,9,10,11a,12-hexahydroindolo[3,2-b]quinolizine-8,11-dione] | 550 nM | 
4 | CN1CN2[C@H](c3ccc4c(c3)OCO4)c3[nH]c4ccccc4c3C[C@@H]2C(=O)N1C [Example 1, (5aR,10R)-10-Benzo[1,3]dioxol-5-yl-7,8-dimethyl-5,5a,8,9,10,11-hexahydro-7H-7,8,9a,11-tetraazabenzo[b]floren-6-one] | 93 nM | 
5 | COc1ccc(C2c3[nH]c4ccccc4c3CC3C(=O)N(Cc4ccccc4)C(=O)CN32)cc1 (stereo not drawn) [Example 2, 2-Benzyl-6-(4-methoxyphenyl)-6,7,12,12a-tetrahydro-pyrazino[1′,2′:1,6]pyrido[3,4-b]indole-1,3-dione] |  | 340 nM
6 | COC(=O)C1CC(=O)N2[C@H](c3ccc4c(c3)OCO4)c3[nH]c4ccccc4c3C[C@@H]2C1O (stereo partly drawn) [Example 5, (+−,cis)-6-Benzo[1,3]dioxol-5-yl-11-hydroxy-8-oxa-5,6,8,9,11a,12-hexahydroindolo[3,2-b]-guinolizine-10-carboxylic acid methyl ester] | 80 nM | 
7 | O=C1OCC(=O)N2[C@H](c3ccc4c(c3)OCO4)c3[nH]c4ccccc4c3C[C@H]12 [Example 7, (6R,11aS)-10-Benzo[1,3]dioxol-5-yl-5,5a,10,11-tetrahydro-7-oxa-9a,11-diazabenzo[b]fluorene-6.9-dione] | 50 nM | 
8 | O=C1CC(=O)N2CCc3c([nH]c4ccccc34)C2C1 (stereo not drawn) [Example 8, 6,7,12,12b-Tetrahydro-1H-indolo[2,3-a]-quinolizine-2,4-dione] |  | 250 nM
9 | COc1cc2c(cc1O)CN1CCc3c([nH]c4ccccc34)C1C2 (stereo not drawn) [Example 15, 2-Methoxy-5,7,8,13,13b,14-hexahydroindolo-[2′,3′:3,4]pyrido[1,2-b]isoquinolin-3-ol] |  | 300 nM
10 | O=C1Nc2ccccc2C2c3[nH]c4ccccc4c3CCN12 (stereo not drawn) [Example 16, 7,8,13,13b-Tetrahydro-5H-5,6a,13-triazaindeno-[1,2-c]phenanthren-6-one] |  | 900 nM
11 | Cn1c2ccccc2c2c(=O)n3c(cc21)-c1[nH]c2ccccc2c1CC3 [Example 18] |  | 70 nM
12 | CC1=CCC(/C=C/C(=O)N2CCc3c([nH]c4ccccc34)C2c2ccc3c(c2)OCO3)CC1 (stereo not drawn) [Example 20] | 180 nM | 
13 | Cc1cccc2c3c([nH]c12)C(c1ccc2c(c1)OCO2)N(C(=O)/C=C/c1ccc(C(=O)O)cc1)CC3 (stereo not drawn) [Example 21] | 3 nM | 
14 | O=C(/C=C/c1ccccc1)N1CCc2c([nH]c3cc(Br)ccc23)C1c1ccc2c(c1)OCO2 (stereo not drawn) [Example 22] | 26 nM | 
15 | O=C(/C=C/c1ccccc1)N1CCc2c([nH]c3cc(-c4ccccc4)ccc23)C1c1ccc2c(c1)OCO2 (stereo not drawn) [Example 23] | 690 nM | 
